This assay relates to Mycobacterium tuberculosis. The experiment in a line: Antimycobacterial activity against Mycobacterium tuberculosis H37Rv harboring FadD32 mutant after 6 days by resazurin dye based fluorescence assay. In kind it is functional.

In brackets after ≈: the same amount, converted by molar mass.

The compound `Cc1cc2nccc(-c3ccccc3)c2c(C)c1-c1ccc(CN2CCOCC2)cc1` came in with an MIC90 of 15.6 µM (≈ 6.37 µg/mL).
The compound `CNC(=O)c1cc(-c2ccccc2Cl)c2c(C)c(-c3ccncc3)c(C)cc2n1` displayed an MIC90 of 6.25 µM (≈ 2.51 µg/mL).

What is called MIC90 is the lowest concentration that inhibits either 90% of growth or 90% of the strains tested, depending on the study.
